For one assay, the target named is Rho kinase 2 (ROCK-II) (Homo sapiens, UniProt O75116). The experiment in a line: In vitro Rho kinase inhibitory activity assay (ADP-Glo), Rho kinase 2. To be noted: 10 μM ATP, 25° C., expressed as range of activity. It counts as biochemical. The essentials:
(§1)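 First, compound was incubated with either Rho kinase isoform for 30 mins at 25 °C; next, ATP was added to 10 μM final with 2.5 μM Myelin Basic Protein substrate; after 1 hour, ADP formed was detected by ADP-Glo luminescence. Dose-response data yielded IC50, converted to Ki using Cheng-Prusoff.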
On the technique in general: In ADP-Glo the light output rises with the ADP produced.

The target in a further assay is Rho kinase 1 (ROCK-I) (Homo sapiens, UniProt Q13464). The experiment in a line: In vitro Rho kinase inhibitory activity assay (ADP-Glo), Rho kinase 1. The following applies: 10 μM ATP, 25° C., expressed as range of activity. It counts as biochemical. The essentials:
as §1

Experimental findings from patent publication US10501461B2, “Tyrosine amide derivatives as Rho-kinase inhibitors” (CHIESI FARMACEUTICI S.P.A., priority 2017, dated 2019) are described below.

As usually defined, the Ki is the dissociation constant of the complex between target and ligand, obtained from inhibition or displacement. Low readings indicate tighter binding, high ones weaker binding.

Sequence of Rho kinase 1 (ROCK-I) (Q13464 whole entry): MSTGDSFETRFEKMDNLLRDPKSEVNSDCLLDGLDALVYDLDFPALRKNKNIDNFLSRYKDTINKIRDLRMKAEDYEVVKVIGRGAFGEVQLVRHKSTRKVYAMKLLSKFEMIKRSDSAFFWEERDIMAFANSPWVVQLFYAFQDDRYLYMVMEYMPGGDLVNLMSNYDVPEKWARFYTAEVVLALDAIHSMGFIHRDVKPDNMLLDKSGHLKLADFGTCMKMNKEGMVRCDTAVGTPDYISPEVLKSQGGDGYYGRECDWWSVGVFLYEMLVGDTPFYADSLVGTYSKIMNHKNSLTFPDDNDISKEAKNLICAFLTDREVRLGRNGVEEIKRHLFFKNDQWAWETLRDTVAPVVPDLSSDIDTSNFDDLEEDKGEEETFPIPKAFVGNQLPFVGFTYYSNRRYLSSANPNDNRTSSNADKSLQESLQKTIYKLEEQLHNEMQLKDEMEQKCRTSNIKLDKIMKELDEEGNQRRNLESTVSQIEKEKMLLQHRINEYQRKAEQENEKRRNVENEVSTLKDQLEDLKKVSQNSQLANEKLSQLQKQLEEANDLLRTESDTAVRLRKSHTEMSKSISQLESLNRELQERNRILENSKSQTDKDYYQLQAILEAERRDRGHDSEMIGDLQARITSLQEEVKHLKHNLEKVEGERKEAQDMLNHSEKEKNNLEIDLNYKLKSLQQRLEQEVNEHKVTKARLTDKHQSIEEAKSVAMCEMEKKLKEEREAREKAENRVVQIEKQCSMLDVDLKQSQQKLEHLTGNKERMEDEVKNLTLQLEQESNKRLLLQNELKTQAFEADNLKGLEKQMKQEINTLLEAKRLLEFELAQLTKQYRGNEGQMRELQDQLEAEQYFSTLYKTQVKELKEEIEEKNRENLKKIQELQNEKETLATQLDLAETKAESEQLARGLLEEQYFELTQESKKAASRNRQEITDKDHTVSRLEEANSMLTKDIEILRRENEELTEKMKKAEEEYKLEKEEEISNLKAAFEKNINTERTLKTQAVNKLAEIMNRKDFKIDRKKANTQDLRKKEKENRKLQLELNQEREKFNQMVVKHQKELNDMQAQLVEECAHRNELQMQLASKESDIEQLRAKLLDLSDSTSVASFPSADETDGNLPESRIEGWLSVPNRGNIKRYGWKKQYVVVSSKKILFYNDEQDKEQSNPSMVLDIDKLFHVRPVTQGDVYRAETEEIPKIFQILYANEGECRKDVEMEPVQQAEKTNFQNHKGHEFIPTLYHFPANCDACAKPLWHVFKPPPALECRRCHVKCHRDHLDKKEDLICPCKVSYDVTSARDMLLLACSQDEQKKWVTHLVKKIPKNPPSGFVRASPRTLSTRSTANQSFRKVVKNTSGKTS
Sequence of Rho kinase 2 (ROCK-II) (O75116 whole entry, canonical isoform): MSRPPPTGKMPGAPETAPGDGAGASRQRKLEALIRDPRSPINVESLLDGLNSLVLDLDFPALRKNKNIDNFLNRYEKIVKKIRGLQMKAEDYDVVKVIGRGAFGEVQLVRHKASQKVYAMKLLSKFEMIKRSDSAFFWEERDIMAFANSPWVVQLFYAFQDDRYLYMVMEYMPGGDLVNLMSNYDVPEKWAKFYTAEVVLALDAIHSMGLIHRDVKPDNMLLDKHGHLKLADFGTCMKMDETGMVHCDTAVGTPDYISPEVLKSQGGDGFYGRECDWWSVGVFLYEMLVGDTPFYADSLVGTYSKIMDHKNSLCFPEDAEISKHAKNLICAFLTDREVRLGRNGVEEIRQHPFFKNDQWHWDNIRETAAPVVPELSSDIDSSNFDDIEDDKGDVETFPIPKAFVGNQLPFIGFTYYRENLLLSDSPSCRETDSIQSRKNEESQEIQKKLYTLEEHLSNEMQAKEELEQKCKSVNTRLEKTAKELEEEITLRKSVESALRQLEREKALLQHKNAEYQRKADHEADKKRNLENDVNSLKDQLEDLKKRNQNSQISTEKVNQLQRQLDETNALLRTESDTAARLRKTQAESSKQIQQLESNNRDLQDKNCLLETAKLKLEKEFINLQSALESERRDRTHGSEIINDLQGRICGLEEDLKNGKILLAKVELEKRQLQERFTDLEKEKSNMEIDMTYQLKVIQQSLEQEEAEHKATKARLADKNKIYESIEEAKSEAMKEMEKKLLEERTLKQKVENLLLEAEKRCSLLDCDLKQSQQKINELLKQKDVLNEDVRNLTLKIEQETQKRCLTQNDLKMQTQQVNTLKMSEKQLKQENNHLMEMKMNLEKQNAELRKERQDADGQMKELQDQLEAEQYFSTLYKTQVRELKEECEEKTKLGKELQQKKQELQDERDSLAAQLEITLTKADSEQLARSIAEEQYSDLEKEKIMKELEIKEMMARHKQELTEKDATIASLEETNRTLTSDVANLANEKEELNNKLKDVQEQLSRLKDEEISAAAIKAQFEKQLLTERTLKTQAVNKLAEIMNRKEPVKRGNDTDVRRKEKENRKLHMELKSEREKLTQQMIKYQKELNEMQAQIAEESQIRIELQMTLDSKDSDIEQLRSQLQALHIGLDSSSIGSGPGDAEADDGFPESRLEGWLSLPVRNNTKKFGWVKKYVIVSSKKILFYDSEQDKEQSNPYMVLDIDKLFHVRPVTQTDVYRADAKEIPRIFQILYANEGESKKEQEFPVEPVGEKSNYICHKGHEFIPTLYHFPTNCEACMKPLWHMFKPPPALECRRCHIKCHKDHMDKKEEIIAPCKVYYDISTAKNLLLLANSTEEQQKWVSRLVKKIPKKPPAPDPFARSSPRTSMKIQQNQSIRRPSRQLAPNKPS

With `Cc1c[nH]c2nccc(Oc3ccc(C[C@H](N)C(=O)N4CCN(C(=O)c5ccccc5)CC4)cc3F)c12` [Example 167, (S)-2-amino-1-(4-benzoylpiperazin-1-yl)-3-(3-fluoro-4-((3-methyl-1H-pyrrolo[2,3-b]pyridin-4-yl)oxy)phenyl)propan-1-one], the Ki at Rho kinase 2 (ROCK-II) and on Rho kinase 1 (ROCK-I) was less than 3 nM throughout.
In the case of `Cc1c[nH]c2nccc(Oc3ccc(C[C@H](N)C(=O)NC4CCCCC4)cc3)c12` [Example 141, (S)-2-amino-N-cyclohexyl-3-(4-((3-methyl-1H-pyrrolo[2,3-b]pyridin-4-yl)oxy)phenyl)propanamide], the Ki at Rho kinase 2 (ROCK-II) and on Rho kinase 1 (ROCK-I) was less than 3 nM throughout.
Regarding `Cc1c[nH]c2nccc(Oc3ccc(C[C@H](N)C(=O)N4CCC(CN(C)C)CC4)cc3F)c12` [Example 45, (S)-2-amino-1-(4-((dimethylamino)methyl)piperidin-1-yl)-3-(3-fluoro-4-((3-methyl-1H-pyrrolo[2,3-b]pyridin-4-yl)oxy)phenyl)propan-1-one], the Ki on Rho kinase 2 (ROCK-II) and on Rho kinase 1 (ROCK-I) was less than 3 nM in each case.
Consider `Cc1c[nH]c2nccc(Oc3ccc(CC(N)C(=O)N4CCCCC4)cc3F)c12` (stereo not drawn) [Example 77, 2-amino-3-(3-fluoro-4-((3-methyl-1H-pyrrolo[2,3-b]pyridin-4-yl)oxy)phenyl)-1-(piperidin-1-yl)propan-1-one], for which the Ki on Rho kinase 2 (ROCK-II) and on Rho kinase 1 (ROCK-I) was less than 3 nM in each case.
In the case of `Cc1c[nH]c2nccc(Oc3ccc(C[C@H](N)C(=O)N4CCC(N(C)C)CC4)cc3F)c12` [Example 14, (S)-2-amino-1-(4-(dimethylamino)piperidin-1-yl)-3-(3-fluoro-4-((3-methyl-1H-pyrrolo[2,3-b]pyridin-4-yl)oxy)phenyl)propan-1-one], the Ki on Rho kinase 2 (ROCK-II) and on Rho kinase 1 (ROCK-I) was less than 3 nM each time.
`Cc1c[nH]c2nccc(Oc3ccc(C[C@H](N)C(=O)N4CCN(c5ccccc5)CC4)cc3F)c12` [Example 5, (S)-2-amino-3-(3-fluoro-4-((3-methyl-1H-pyrrolo[2,3-b]pyridin-4-yl)oxy)phenyl)-1-(4-phenylpiperazin-1-yl)propan-1-one]: the Ki on Rho kinase 2 (ROCK-II) and on Rho kinase 1 (ROCK-I) was less than 3 nM in each case.
For the molecule `N[C@@H](Cc1ccc(Oc2ccnc3[nH]cc(CO)c23)c(F)c1)C(=O)N1CCN(Cc2ccccc2)CC1` [Example 207, (S)-2-amino-1-(4-benzylpiperazin-1-yl)-3-(3-fluoro-4-((3-(hydroxymethyl)-1H-pyrrolo[2,3-b]pyridin-4-yl)oxy)phenyl)propan-1-one], the Ki on Rho kinase 2 (ROCK-II) and at Rho kinase 1 (ROCK-I) was less than 3 nM each time.
Consider `COCCCNC(=O)[C@@H](N)Cc1ccc(Oc2ccnc3[nH]cc(C)c23)cc1` [Example 87, (S)-2-amino-N-(3-methoxylpropyl)-3-(4-((3-methyl-1H-pyrrolo[2,3-b]pyridin-4-yl)oxy)phenyl)propanamide], for which the Ki at Rho kinase 2 (ROCK-II) and at Rho kinase 1 (ROCK-I) was less than 3 nM each time.
`Cc1c[nH]c2nccc(Oc3ccc(C[C@H](N)C(=O)N4CCN(Cc5cnn(C)c5)CC4)cc3F)c12` [Example 163, (S)-2-amino-3-(3-fluoro-4-((3-methyl-1H-pyrrolo[2,3-b]pyridin-4-yl)oxy)phenyl)-1-(4-((1-methyl-1H-pyrazol-4-yl)methyl)piperazin-1-yl)propan-1-one]: the Ki at Rho kinase 2 (ROCK-II) and at Rho kinase 1 (ROCK-I) was less than 3 nM each time.
As to `Cc1c[nH]c2ncnc(Oc3ccc(C[C@H](N)C(=O)N4CCN(Cc5ccccn5)CC4)cc3F)c12` [Example 120, (S)-2-amino-3-(3-fluoro-4-((5-methyl-7H-pyrrolo[2,3-d]pyrimidin-4-yl)oxy)phenyl)-1-(4-(pyridin-2-ylmethyl)piperazin-1-yl)propan-1-one], the results for the Ki on Rho kinase 2 (ROCK-II) and on Rho kinase 1 (ROCK-I) were less than 3 nM and 3 to 30 nM, respectively.
The like results for `Cc1c[nH]c2nccc(Oc3ccc(CC(N)C(=O)N4CCN(Cc5ccc(F)cc5)CC4)cc3F)c12` (stereo not drawn) [Example 74, 2-amino-3-(3-fluoro-4-((3-methyl-1H-pyrrolo[2,3-b]pyridin-4-yl)oxy)phenyl)-1-(4-(4-fluorobenzyl)piperazin-1-yl)propan-1-one] were, in that order, less than 3 nM and less than 3 nM.
`Cc1c[nH]c2nccc(Oc3ccc(C[C@H](N)C(=O)N4CCN(Cc5nccn5C)CC4)cc3F)c12` [Example 156, (S)-2-amino-3-(3-fluoro-4-((3-methyl-1H-pyrrolo[2,3-b]pyridin-4-yl)oxy)phenyl)-1-(4-((1-methyl-1H-imidazol-2-yl)methyl)piperazin-1-yl)propan-l-one]: the Ki on Rho kinase 2 (ROCK-II) and on Rho kinase 1 (ROCK-I) was less than 3 nM throughout.
On to `N[C@@H](Cc1ccc(Oc2ccnc3[nH]cc(Br)c23)cc1)C(=O)NC1CCCCC1` [Example 188, (S)-2-amino-3-(4-((3-bromo-1H-pyrrolo[2,3-b]pyridin-4-yl)oxy)phenyl)-N-cyclohexylpropanamide], for which the Ki at Rho kinase 2 (ROCK-II) and at Rho kinase 1 (ROCK-I) was less than 3 nM throughout.
`N[C@@H](Cc1ccc(Oc2ccnc3[nH]cc(I)c23)cc1)C(=O)NC1CCCCC1` [Example 190, (S)-2-amino-N-cyclohexyl-3-(4-((3-iodo-1H-pyrrolo[2,3-b]pyridin-4-yl)oxy)phenyl)propanamide]: the Ki at Rho kinase 2 (ROCK-II) and on Rho kinase 1 (ROCK-I) was less than 3 nM each time.
As for `Cc1c[nH]c2nccc(Oc3ccc(C[C@H](N)C(=O)N4CCN(Cc5cccnc5)CC4)cc3F)c12` [Example 28, (S)-2-amino-3-(3-fluoro-4-((3-methyl-1H-pyrrolo[2,3-b]pyridin-4-yl)oxy)phenyl)-1-(4-(pyridin-3-ylmethyl)piperazin-1-yl)propan-1-one], the Ki at Rho kinase 2 (ROCK-II) and at Rho kinase 1 (ROCK-I) was less than 3 nM each time.
With `N#Cc1c[nH]c2nccc(Oc3ccc(C[C@H](N)C(=O)NC4CCCCC4)cc3)c12` [Example 219, (S)-2-amino-3-(4-((3-cyano-1H-pyrrolo[2,3-b]pyridin-4-yl)oxy)phenyl)-N-cyclohexylpropanamide], the Ki on Rho kinase 2 (ROCK-II) and at Rho kinase 1 (ROCK-I) was less than 3 nM each time.
On to `Cc1c[nH]c2nccc(Oc3ccc(C[C@@H](N)C(=O)Nc4ccccc4)cc3)c12` [Example 138, (R)-2-amino-3-(4-((3-methyl-1H-pyrrolo[2,3-b]pyridin-4-yl)oxy)phenyl)-N-phenylpropanamide], for which the Ki on Rho kinase 2 (ROCK-II) and on Rho kinase 1 (ROCK-I) was 3 to 30 nM each time.
`N[C@@H](Cc1ccc(Oc2ccnc3[nH]cc(-c4ccc(O)cc4)c23)cc1)C(=O)N1CCN(Cc2ccccc2)CC1` [Example 200, (S)-2-amino-1-(4-benzylpiperazin-1-yl)-3-(4-((3-(4-hydroxyphenyl)-1H-pyrrolo[2,3-b]pyridin-4-yl)oxy)phenyl)propan-1-one]: the Ki on Rho kinase 2 (ROCK-II) and on Rho kinase 1 (ROCK-I) was less than 3 nM in each case.
For `Cc1c[nH]c2ncnc(Oc3ccc(C[C@H](N)C(=O)N4C[C@@H](C)N(C)[C@@H](C)C4)cc3F)c12` [Example 129, (S)-2-amino-3-(3-fluoro-4-((5-methyl-7H-pyrrolo[2,3-d]pyrimidin-4-yl)oxy)phenyl)-1-((3S,5R)-3,4,5-trimethylpiperazin-1-yl)propan-1-one], the Ki at Rho kinase 2 (ROCK-II) and on Rho kinase 1 (ROCK-I) was less than 3 nM each time.
In the case of `Cc1c[nH]c2nccc(Oc3ccc(C[C@H](N)C(=O)N[C@H]4CN5CCC4CC5)cc3F)c12` [Example 46, (S)-2-amino-3-(3-fluoro-4-((3-methyl-1H-pyrrolo[2,3-b]pyridin-4-yl)oxy)phenyl)-N-((R)-quinuclidin-3-yl)propanamide], the Ki at Rho kinase 2 (ROCK-II) and at Rho kinase 1 (ROCK-I) was less than 3 nM each time.
With `N[C@@H](Cc1ccc(Oc2ccnc3[nH]cc(CO)c23)c(F)c1)C(=O)N1CCN(Cc2ccccn2)CC1` [Example 213, (S)-2-amino-3-(3-fluoro-4-((3-(hydroxymethyl)-1H-pyrrolo[2,3-b]pyridin-4-yl)oxy)phenyl)-1-(4-(pyridin-2-ylmethyl)piperazin-1-yl)propan-1-one], the inhibition constant Ki at Rho kinase 2 (ROCK-II) and on Rho kinase 1 (ROCK-I) was less than 3 nM throughout.
Take `N[C@@H](Cc1ccc(Oc2ncnc3[nH]ccc23)cc1)C(=O)N1CCN(Cc2ccccc2)CC1` [Example 226, (S)-3-(4-((7H-pyrrolo[2,3-d]pyrimidin-4-yl)oxy)phenyl)-2-amino-1-(4-benzylpiperazin-1-yl)propan-1-one]: the Ki at Rho kinase 2 (ROCK-II) and at Rho kinase 1 (ROCK-I) was 3 to 30 nM throughout.
Regarding `CN1CCC(NC(=O)[C@@H](N)Cc2ccc(Oc3ccnc4[nH]cc(CO)c34)c(F)c2)CC1` [Example 210, (S)-2-amino-3-(3-fluoro-4-((3-(hydroxymethyl)-1H-pyrrolo[2,3-b]pyridin-4-yl)oxy)phenyl)-N-(1-methylpiperidin-4-yl)propanamide], the Ki on Rho kinase 2 (ROCK-II) and on Rho kinase 1 (ROCK-I) was 3 to 30 nM throughout.
Turning to `CN(C)C(Cc1ccc(Oc2ccnc3[nH]ccc23)cc1)C(=O)NC1CCOCC1` (stereo not drawn) [Example 182, 3-(4-((1H-pyrrolo[2,3-b]pyridin-4-yl)oxy)phenyl)-2-(dimethylamino)-N-(tetrahydro-2H-pyran-4-yl)propanamide], the Ki at Rho kinase 2 (ROCK-II) and on Rho kinase 1 (ROCK-I) was greater than 30 nM each time.
Take `Cc1c[nH]c2nccc(Oc3ccc(C[C@H](N)C(=O)NC4(C(N)=O)CCCCC4)cc3F)c12` [Example 35, (S)-1-(2-amino-3-(3-fluoro-4-((3-methyl-1H-pyrrolo[2,3-b]pyridin-4-yl)oxy)phenyl)propanamido)cyclohexanecarboxamide]: the Ki on Rho kinase 2 (ROCK-II) and on Rho kinase 1 (ROCK-I) was less than 3 nM throughout.
On to `N[C@@H](Cc1ccc(Oc2ccnc3[nH]cc(C4CC4)c23)cc1)C(=O)NC1CCCCC1` [Example 203, (S)-2-amino-N-cyclohexyl-3-(4-((3-cyclopropyl-1H-pyrrolo[2,3-b]pyridin-4-yl)oxy)phenyl)propanamide], for which the Ki at Rho kinase 2 (ROCK-II) and at Rho kinase 1 (ROCK-I) was less than 3 nM in each case.
For the molecule `Cc1c[nH]c2nccc(Oc3ccc(C[C@H](N)C(=O)NCCCN(C)C)cc3F)c12` [Example 15, (S)-2-amino-N-(3-(dimethylamino)propyl)-3-(3-fluoro-4-((3-methyl-1H-pyrrolo[2,3-b]pyridin-4-yl)oxy)phenyl)propanamide], the Ki at Rho kinase 2 (ROCK-II) and on Rho kinase 1 (ROCK-I) was less than 3 nM throughout.
